From patent publication US20250312473A1, “B7H3 ANTIBODY DRUG CONJUGATES” (BEONE MEDICINES I GMBH, priority 2022, published 2025)

How the values were obtained:
[1] = HIC methods to evaluate ADC hydrophobicity (DAR8 HIC retention time); format: physicochemical; details: HIC Method 2
Experimental: HPLC analysis was carried out under the following measurement conditions: • HPLC system: Waters ACQUITY ARC HPLC System • Detector: measurement wavelength: 280 nm • Column: MABPac HIC-10, 5 μm, 4.6×10 mm (Thermo) • Column temperature: 25° C. • Mobile phase A: 1.5 M ammonium sulfate, 50 mM sodium phosphate, pH 7.0 • Mobile phase B: 50 mM sodium phosphate, pH 7.0 • Gradient program: 20% B—20% B (0 min-1 min), 0% B-0% B (1 min-35 min), 20% B-20% B (35 min-40 min) • Flow rate: 0.5 mL/min
Sample preparation: The sample was diluted with initial mobile phase to 0.5 mg/mL.
DAR8 HIC retention time (min) is an indication of the relative hydrophobicity of an ADC. ADCs with higher DAR8 HIC retention have a higher hydrophobic property.

NCI-H1650 = assay: ADC direct killing, 3D culture, NCI-H1650; format: cell-based, human; details: 6 days
Experimental: (§1) The base medium for NCI-H1650 is ATCC-formulated RPMI-1640 Medium, ATCC 30-2001. To make the complete growth medium, fetal bovine serum was added to the base medium to a final concentration of 10% (Gibco, 10099-141C). The cell line was grown in a humidified 5% CO2 atmosphere at 37° C., and was regularly tested for the presence of mycoplasma with MycoAlert™ PLUS Mycoplasma Detection Kit (Lonza, LT07-710).
(§2) NCI-H1650, NCI-H1048, MDA-MB-453 (2E3/well) or Capan-1 (4E3/well) cells were seeded into 3D-96-well plates (Corning: 4520) at 80 μl/well and incubated at 37° C., 5% CO2, overnight.
(§3) Fresh growth medium containing the varying concentrations of ADCs was added at 40 µl/well. The cells were incubated at 37° C., 5% CO2, 6 days.
(§4) The cell viability was detected by 3D reagent (Promega, G9683), […]. The plates were allowed to incubate at room temperature for 30 minutes to stabilize the luminescent signal. Then the plates were analyzed with a microplate reader.

Capan-1 = assay: ADC direct killing, 3D culture, Capan-1; format: cell-based, human; details: 6 days
Experimental: Capan-1 is a cell line with epithelial morphology that was isolated from the pancreas of a person with pancreatic adenocarcinoma, and Capan-1 was purchased from ATCC. The base medium for Capan-1 is ATCC-formulated Iscove's Modified Dulbecco's Medium, Catalog No. 30-2005. To make the complete growth medium, fetal bovine serum was added to the base medium to a final concentration of 20% (Gibco, 10099-141C). The cell line was grown in a humidified 5% CO2 atmosphere at 37° C., and was regularly tested for the presence of mycoplasma with MycoAlert™ PLUS Mycoplasma Detection Kit (Lonza, LT07-710).
as §2, §3, §4

NCI-H1048 = assay: ADC direct killing, 3D culture, NCI-H1048; format: cell-based, human; details: 6 days
Experimental: as §1, with “NCI-H1048” for “NCI-H1650”, “DMEM:F12 Medium Catalog No. 30-2006.” for “RPMI-1640 Medium, ATCC 30-2001.”
as §2, §3, §4

[2] = tested on: NCI-H358:MDA-MB-453-nanoLuc = 10:1; assay: ADC bystander killing, NCI-H358/MDA-MB-453 (nano-Luc) co-culture; format: cell-based, human; details: co-culture 10:1, 3D, 6 days
Experimental: Method: MDA-MB-453-nanoLuc cell line construction PT67-nanoLuc cells were cultured, then the cell-culture medium (containing the virus (nano-Luc gene)) was collected and filtered. MDA-MB-453 cells were seed in 6-well plates at 1E5 cells/well, and incubated at 37° C., 5% CO2, overnight. The PT67-nanoLuc cell medium and 8 ug/mli polybrene was added. The infection was repeated 3 times, every one day. Then the MDA-MB-453-nanoLuc cells were cultured with the addition of 1 mg/ml Geneticin for 5 days. The MDA-MB-453-nanoLuc cells were collected, and Nano-Glo reagent (Promega: N1120) was added to test the nano-Luc transfection efficiency.
Method: ADC Bystander Killing NCI-H358 & MDA-MB-453-nanoLuc (10:1), or MDA-MB-453-nanoLuc cels alone were seeded into 3D-96-well plates (Corning: 4520) at 80 μl/well, and Incubated at 37° C., 5% CO2, overnight. Fresh growth medium containing the varying concentrations of ADCs was added at 40 μl/well. The cells were incubated at 37° C., 5% CO2, 6 days. The 3D-plates were centrifuged at 1500 rpm, 25° C., […], then the supernatant was discarded.
The […] cell viability was detected by Nano-Glo reagent (Promega: N1120), 150 μl/well. The 3D-plates were allowed to incubate at room temperature for 10 minutes to stabilize the luminescent signal. Then the plates were analyzed with a microplate reader.

[3] = tested on: H1650 xenografts (B7H3 IHC 3+); assay: ADC in vivo efficacy study, H1650 xenografts; parameters: species or system BALB/c Nude mice; details: for TGI (%) at T 28: day 28; for TGI (%) at T 30: day 30
Experimental: Female BALB/c Nude mice were subcutaneously implanted with 3×10^6 H1650 cells per 200 μL PBS/matrigel in the right flank. After inoculation, tumor volumes were determined twice weekly in two dimensions using a caliper, and were expressed in mm^3 using the formula: V=0.5(a×b^2) where a and b are the long and short dimensions of the tumor, respectively.
Partial regression (PR) was defined as tumor volume smaller than 50% of the starting tumor volume on the first day of dosing in three consecutive measurements and complete regression (CR) was defined as tumor volume less than 14 mm^3 in three consecutive measurements. Data is presented as mean tumor volume±standard error of the mean (SEM). Tumor growth inhibition (TGI) is calculated using formula (TGI):
[formula] • treated t=treated tumor volume at time t • treated t0=treated tumor volume at time 0 • placebo t=placebo tumor volume at time t • placebo t0=placebo tumor volume at time 0

[4] = tested on: H1975 xenografts (B7H3 IHC 3+); assay: ADC in vivo efficacy study, H1975 xenografts; parameters: species or system BALB/c Nude mice; details: study (5); 3 mpk (3 mg/kg) i.v. on day 1; day 31

Which results are given for “ADC3-A: "ADC3-A is the biosimilar ADC of DS7300a (benchmark)"; antibody MABX-9001a, average DAR 3.99”?
HIC DAR8 RT (min) Method 2 [1]: 21.817 (Meth - od 2) min; EC50 (NCI-H1650; Table 6, NCI-H1650 (High)): 8.2 nM; Emax (%) (NCI-H1650; Table 6, NCI-H1650 (High)): 54.2%; EC50 (NCI-H1650; Table 7, NCI-H1650 (High)): 8.2 nM; Emax (%) (NCI-H1650; Table 7, NCI-H1650 (High)): 54.2%; EC50 (NCI-H1650; Table 8, NCI-H1650 (High)): 10.9 nM; Emax (%) (NCI-H1650; Table 8, NCI-H1650 (High)): 33.1%; EC50 (NCI-H1650; Table 9, NCI-H1650 (High)): 5.7 nM; Emax (%) (NCI-H1650; Table 9, NCI-H1650 (High)): 62.0%; EC50 (NCI-H1650; Table 10, NCI-H1650 (High)): 7.4 nM; Emax (%) (NCI-H1650; Table 10, NCI-H1650 (High)): 61.1%; EC50 (Capan-1; Table 6, Capan-1 (Low)): 4 nM; Emax (%) (Capan-1; Table 6, Capan-1 (Low)): 66.7%; EC50 (Capan-1; Table 7, Capan-1 (Low)): 4 nM; Emax (%) (Capan-1; Table 7, Capan-1 (Low)): 66.7%; EC50 (Capan-1; Table 8, Capan-1 (Low)): 1.7 nM; Emax (%) (Capan-1; Table 8, Capan-1 (Low)): 71.4%; EC50 (NCI-H1048; Table 9, NCI-H1048 (Low)): 1.2 nM; Emax (%) (NCI-H1048; Table 9, NCI-H1048 (Low)): 98.9%; EC50 (NCI-H1048; Table 10, NCI-H1048 (Low)): 2.6 nM; Emax (%) (NCI-H1048; Table 10, NCI-H1048 (Low)): 99.0%; EC50 ([2]; Table 11): 9.8 nM; Emax (%) bystander killing ([2]; Table 11): 89.1%; EC50 ([2]; Table 12): 9.8 nM; Emax (%) bystander killing ([2]; Table 12): 89.1%; EC50 ([2]; Table 13): 5.4 nM; Emax (%) bystander killing ([2]; Table 13): 82.3%; EC50 ([2]; Table 14): 13 nM; Emax (%) bystander killing ([2]; Table 14): 89.5%; TGI (%) at T 28 ([3]; study (1), 3 mpk (3 mg/kg) i.v. on day 1): 53%; TGI (%) at T 28 ([3]; study (1), 10 mpk (10 mg/kg) i.v. on day 1): 86%; TGI (%) at T 30 ([3]; study (2), 10 mpk (10 mg/kg) i.v. on day 1): 85%; TGI (%) at T 30 ([3]; study (3), 10 mpk (10 mg/kg) i.v. on day 1): 85%; TGI (%) at T 28 ([3]; study (4), 10 mpk (10 mg/kg) i.v. on day 1): 70%; TGI (%) at T 31 [4]: 56%
